Measurements from paper PMC10072296, “A Novel CCK Receptor GPR173 Mediates Potentiation of GABAergic Inhibition” (The Journal of Neuroscience, 2023).

How the values were obtained:
[1] = system: CCK2R; experiment: Cell surface binding assay, Flag-CCK2R; parameters: species or system human; details: transfected HEK293T cells; HHBS with 20 mM HEPES, pH 7.4, 30 min, room temperature; anti-HA/anti-Flag immunofluorescence, confocal; n = 33-40 cells, three independent experiments
Protocol: (§1) We transfected HEK293T cells with pCDNA3.1(+)-Flag-GPCR (purchased from Public Protein/Plasmid Library or made in our laboratory based on a pCDNA3.1(+) backbone). […] After three washes with HHBS, cells were fixed in 4% paraformaldehyde (PFA) and 4% sucrose in PBS for 15 min at room temperature. Cells were blocked in 5% normal goat serum in PBS, and staining was performed in detergent-free conditions without cell permeabilization after three washes by PBS. We used primary antibody rabbit anti-HA (catalog #8146, Cell Signaling Technology), anti-GPR173 (catalog #PA5-50 976, Thermo Fisher Scientific), and mouse anti-Flag (catalog #3724, Cell Signaling Technology) to detect HA and Flag tags. Images were captured on a Leica SP8 confocal microscope. Images within each experiment were collected using identical laser power, offset, and gain.

[2] = system: GPR173; experiment: Cell surface binding assay, Flag-GPR173; parameters: species or system human; details: transfected HEK293T cells; HHBS with 20 mM HEPES, pH 7.4, 30 min, room temperature; Fanti-HA/Fanti-Flag, confocal; n = 33-40 cells, three independent experiments
Protocol: as §1

[3] = system: HTR1B; experiment: Cell surface binding assay, Flag-HTR1B; parameters: species or system human; details: transfected HEK293T cells (negative/background control); HHBS pH 7.4, 30 min, room temperature; confocal
Protocol: as §1

[4] = target: T1, GPR173 (CHO-GPR173 cells) (Homo sapiens, UniProt Q9NS66); experiment: Ca2+ imaging assay in CHO-GPR173 cells; format: cell-based
T1 construct: expressed in transfected cells; host or cells: CHO cells, lentiviral infection (pLVX-puro-GPCR), puromycin selection, monoclonal line
T1 sequence (Q9NS66 whole entry): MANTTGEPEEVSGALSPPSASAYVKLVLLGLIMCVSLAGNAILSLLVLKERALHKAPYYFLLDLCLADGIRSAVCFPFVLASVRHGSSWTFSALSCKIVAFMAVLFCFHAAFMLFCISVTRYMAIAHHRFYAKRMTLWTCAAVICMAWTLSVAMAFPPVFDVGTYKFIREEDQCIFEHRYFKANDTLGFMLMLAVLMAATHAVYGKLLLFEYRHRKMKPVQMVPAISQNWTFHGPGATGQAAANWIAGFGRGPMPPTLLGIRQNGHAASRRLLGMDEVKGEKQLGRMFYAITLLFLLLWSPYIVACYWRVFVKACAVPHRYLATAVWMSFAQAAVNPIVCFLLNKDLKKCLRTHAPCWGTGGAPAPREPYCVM
Protocol: CHO and infected CHO cells (CHO-GPCRs) were cultivated at 37°C in a humidified atmosphere with 5% CO2 in DMEM/F-12 medium (Thermo Fisher Scientific) supplemented with 10% FBS (Natocor Industria Biológica).
For Ca^2+ mobilization by a confocal microscope, ∼8 × 10^4 transfected cells were seeded in each well of an eight-well chambered cover glass (Thermo Fisher Scientific) the day before the Ca^2+ imaging assay. Then, 5 μM Fluo-8 (AAT Bioquest) dissolved in HHBS solution was incubated with the cells for 30 min in a cell incubator and 30 min at room temperature after removing the culture medium. These cells were washed three times with HHBS, and 360 µl HHBS was added. Subsequently, images of these cells were captured by a Zeiss 710 nonlinear optical confocal microscope before and after being treated with 10× compounds or HHBS solution.
Cells were cultured at 37°C, and 5% CO2 in DMEM/F-12 medium (Thermo Fisher Scientific) containing 10% FBS (Natocor Industria Biológica) and washed with DMEM/F-12 medium once after overnight incubation.

[5] = system: IPSCs of pyramidal neurons in auditory cortex (AC) brain slices; experiment: In vitro patch-clamp recording of laser-evoked IPSCs in pyramidal neurons; details: devazepide 60 nM in bath solution, brain slices from mDlx-DIO-ChR2-mCherry-injected CCK-Cre mice
From the text: For brain slice recording experiments, we injected rAAV9-mDlx-DIO-ChR2-mCherry-WPRE-pA (5.18E + 12 vg/ml; BrainVTA) into the AC of CCK-Cre and PV-Cre mice.
In the in vivo brain slice recording experiments, we adopted a protective cutting and recovery method to prepare acute brain slices from CCK-Cre, PV-Cre, CCK-KO, and CCK1R/2R-KO mice to achieve a higher success rate for patch clamping, as previously described ([Chen et al., 2019]). […]
We performed whole-cell recordings with a MultiClamp 700B amplifier and Digital 1440A digitizer (Molecular Devices) targeting the AC in the brain slices in room temperature aCSF containing the following (in mM): 119 NaCl, 2.5 KCl, 1.25 NaH2PO4, 24 NaHCO3, 12.5 glucose, 2 CaCl2·4H2O, and 2 MgSO4·7H2O, ∼25°C). […] We recorded IPSCs in response to the laser stimulation (1 pulse per 15 s, 5 ms in duration) under voltage-clamp recording mode (holding at −60 mV to −50 mV) for 5 min as the baseline before and for 25 min after HFLS or LFLS. […] For the normalization of recorded IPSCs in the CCK-Cre, PV-Cre, CCK-KO, and CCK1R/2R-KO mice, we selected only patched neurons with IPSCs >35 pA.

HA-tagged CCK8s: HA-(ε-Ahx)2-CCK variant probe of CCK8s
Binding to Flag-CCK2R (Fanti-HA/Fanti-Flag) [1]: significantly larger ratio of CCK ligand HA-tag signal to CCK2R Flag signal (Fanti-HA/Fanti-Flag) than that of the HA-(ε-Ahx)2 control group | Binding to Flag-GPR173 [2]: could only bind to HA-tagged CCK8 | Binding to Flag-HTR1B [3]: No binding

HA-tagged CCK8ns: HA-(ε-Ahx)2-CCK variant probe of nonsulfated CCK8
Binding to Flag-CCK2R (Fanti-HA/Fanti-Flag) [1]: significantly larger ratio of CCK ligand HA-tag signal to CCK2R Flag signal (Fanti-HA/Fanti-Flag) than that of the HA-(ε-Ahx)2 control group | Binding to Flag-GPR173 [2]: not HA-tagged CCK4 or CCK8ns | Binding to Flag-HTR1B [3]: No binding

CN1C(=O)[C@@H](NC(=O)c2cc3ccccc3[nH]2)N=C(c2ccccc2)c2ccccc21 [devazepide]
Antagonistic action on GPR173, rank ([4]; CHO-GPR173, 10 nM CCK8s, compared with loxiglumide, YF476 and L365,260): highest antagonistic action on GPR173 | IC50 ([4]; read-out: IC50, antagonism of CCK8s-induced Ca2+ response): 12.3 nM | Block of HFLS-induced potentiation of IPSCs [5]: fully blocked the HFLS-induced potentiation of IPSCs
